Measurements as given in patent publication US7759367B2, “Pharmaceutical compositions and their uses” (Eisai R&D Management Co., Ltd., priority 2001, dated 2010).
Where two headings read alike, the source gives them in different places.

How the values were obtained:
[1] = system: male mice of ddy strain; test: Anticonvulsant action induced by AMPA (Test Example 2); assay type: in vivo; conditions: 25 mg/kg orally, AMPA 2 nmole/5 μl/minute/mouse into lateral ventricle 30 minutes or 1 hour after dosing
Experimental: A test compound was suspended in a 0.5% methyl cellulose solution or in sesame oil and was orally administered (25 mg/kg) to male mice of ddy strain. After 30 minutes or 1 hour from the oral administration, AMPA was continuously injected (2 nmole/5 μl/minute/mouse) into lateral ventricle to induce the convulsions. The effect was judged by a time-extending action until the convulsion takes place by a continuous injection of AMPA.

[2] = system: Female Lewis rats; test: Experimental autoimmune encephalomyelitis model (Test Example 10); assay type: in vivo, rat; conditions: p.o. 5, 10 and 20 mg/kg, 10-16 dpi
Experimental: Female Lewis rats (205±10 g) obtained from Charles River, Kent UK, were housed in pairs under environmentally controlled conditions (6:00a.m.-6:00p.m. light/dark cycle; 22-24° C.; 45-55% humidity) and allowed free access to food and water. Experimental groups consisted of 9-12 animals. Rats were immunised in each hind foot with 20-50 μl of inoculum containing 50 μg guinea pig myelin basic protein (MBP; final concentration 2 mg/ml), emulsified in Freund's complete adjuvant (CFA; Sigma, UK) containing Mycobacterium tuberculosis H37Ra (final concentration 5.5 mg/ml; Difco Laboratories, UK). Animals were weighed and monitored daily and clinical disease scored as (0) no clinical signs; (1) flaccid tail and weight loss; (2) hind limb hypotonia with further weight loss; (3) complete hind limb paralysis; (4) paraplegia and (5) death. […] During the period of compound administration (10-16 days post immunisation; dpi) animals were scored 15 h after injection of vehicle or compound to avoid any acute effect of treatment on disease score. Compounds were dissolved/suspended in 0.5% methyl cellulose using a hand held Polytron homogeniser (PT1200; 2 min). Rats were dosed p.o. with either methyl cellulose vehicle (2.5 ml/kg) or compound at 5, 10 and 20 mg/kg.

[3] = system: AMPA receptor;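 also: neurons cultured at least 8 to 10 days atop an astrocyte layer in 96-well plates, calcium entry read as the change in Fura2 fluorescence ratio at 340/380 nm excitation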
Experimental: Cerebral cortex was cut out from the brain of rat of gestational 18 days and treated with trypsin and DNase to disperse the cells. The cells were flown by MEM containing 10% of serum, sown in a culture bottle and astrocytes were proliferated. The astrocytes were re-dispersed by trypsin and sown in a 96-well plate. After incubation for one week, it was confirmed that the astrocytes covered all over the bottom and then the nerve cells of cerebral cortex which was dispersed by the above method were sown thereupon. After incubation for 24 hours, the medium was changed, the incubation was carried out for one week and, after that, the medium was changed to that containing 1 μM of MK-801. Nerve cells which were incubated for not shorter than 8 to 10 days were used.
Calcium influx into the cells was measured using Fura2-AM which was a calcium-sensitive fluorescent dye. It was treated in a medium containing Fura2-AM for 1 hour, incorporated into the cells, exchanged to a Tyrode solution containing 1 μM MK-801 and stimulation was carried out using 2 μM AMPA. Change in the amount of calcium flown into the cells were measured as the change in the fluorescent intensity at the exciting wave length of 340/380 nm.

[4] = system: Lewis rats; test: Acute EAE in Lewis rats: Example 7 alone and combined with interferon-β (In Vivo Example 1); conditions: Lewis rat acute EAE, Example 7 10 mg/kg p.o., interferon-β 1×10^6 Units/rat s.c., once daily 7-16 dpi
Experimental: Female Lewis rats (200+10 g) obtained from Charles River, Kent, UK, were housed in pairs under environmentally controlled conditions (6:00 a.m.-6:00 p.m. light/dark cycle; 22-24° C.; 45-55% humidity) and allowed free access to food and water. Experimental groups consisted of 8 animals.
Rats were immunised in each hind foot with 15 μl of inoculum containing […] guinea pig myelin basic protein (MBP, prepared by the method of Dunkley and Carnegie (1974); final concentration 2 mg/ml), emulsified in Freund's complete adjuvant (CFA; Sigma, UK) containing Mycobacterium tuberculosis H37Ra (final concentration 5.5 mg/ml; Difco Laboratories, UK).
Animals were weighed and monitored daily and clinical disease scored as (0) no clinical signs; (1) flaccid tail and weight loss; (2) hind limb hypotonia with further weight loss; (3) complete hind limb paralysis; (4) paraplegia and (5) death. […] During the period of compound administration (7-16 days post immunisation; dpi) animals were scored 15 h after injection of vehicle, compound of example 7 or interferon-β to avoid any acute effect of treatment on disease score.
3-(2-Cyanophenyl)-1-phenyl-5-(2-pyridyl)-1,2-dihydropyridin-2-one; (example 7) was suspended in 0.5% methyl cellulose (MC) solution to obtain a compound concentration of 4 mg/ml. Interferon-β was dissolved in PBS to obtain a compound concentration of 5×10^6 Units/ml. Rats were dosed once daily (9 a.m.) on days 7 to 16 post immunisation with either vehicle (methyl cellulose p.o. and PBS s.c.), the compound alone in the dose of 10 mg/kg (p.o. plus vehicle PBS s.c), interferon-β alone in the dose of 1×10^6 Units/rat (s.c. plus methyl cellulose p.o.) or example 7 in the dose of 10 mg/kg (p.o) combined with interferon-β in the dose of 1×10^6 Units/rat (s.c.).

[5] = suppression of AMPA-induced calcium influx into nerve cells, Table 2
[6] = primary culture of rat embryo cerebral cortex nerve cells, Fura2-AM, 2 μM AMPA, 1 μM MK-801

SMILES	Anticonvulsant action (time-extending action until convulsion by continuous AMPA injection) [1]	Effect on EAE vs vehicle-administered group [2]	IC50 [3, 6]	further results
N#Cc1ccccc1-c1cc(-c2ncccn2)cn(-c2cccnc2)c1=O [Example 261, 3-(2-Cyanophenyl)-1-(3-pyridyl)-5-(2-pyrimidinyl)-1,2-dihydropyridin-2-one]	significant anticonvulsant action	superior effect to the vehicle-administered group		
N#Cc1ccccc1-c1cc(-c2ncccn2)cn(-c2ccccc2)c1=O [Example 164, 3-(2-Cyanophenyl)-1-phenyl-5-(2-pyrimidinyl)-1,2-dihydropyridin-2-one]	significant anticonvulsant action	superior effect to the vehicle-administered group		IC50 [3, 5]: 80 nM
N#Cc1cccnc1-c1cc(-c2ccccn2)cn(-c2ccccc2)c1=O [Example 78, 3-(3-Cyano-2-pyridyl)-5-(2-pyridyl)-1-phenyl-1,2-dihydropyridin-2-one]	significant anticonvulsant action		1400 nM	
CN(C)c1cccc(-n2cc(-c3ccccn3)cc(-c3ccccc3C#N)c2=O)c1 [Example 12, 3-(2-Cyanophenyl)-5-(2-pyridyl)-1-(3-dimethylaminophenyl)-1,2-dihydropyridin-2-one]	significant anticonvulsant action		100 nM	
N#Cc1ncccc1-c1cc(-c2ccccn2)cn(-c2ccccc2)c1=O [Example 16, 3-(2-Cyano-3-pyridyl)-5-(2-pyridyl)-1-phenyl-1,2-dihydropyridin-2-one]	significant anticonvulsant action		100 nM	
O=c1c(-c2cccnc2F)cc(-c2ccccn2)cn1-c1ccccc1 [Example 76, 3-(2-Fluoro-3-pyridyl)-5-(2-pyridyl)-1-phenyl-1,2-dihydropyridin-2-one]	significant anticonvulsant action	superior effect to the vehicle-administered group		
N#Cc1ccccc1-c1cc(-c2ccccn2)cn(-c2ccccc2)c1=O [Example 7, 3-(2-Cyanophenyl)-1-phenyl-5-(2-pyridyl)-1,2-dihydropyridin-2-one]	significant anticonvulsant action	superior effect to the vehicle-administered group	100 nM	Duration (days) ([4]; mean and range, n=8): 3.0 (0-4) days; Onset (d.p.i.) ([4]; mean and range, n=8 (n=1 for the combination)): 11.8 (11-15) d.p.i.; Effect on disease progression (paralysis, disease score, onset, duration) during EAE, in words ([4]; n=8/group): significantly delayed disease onset, shortened disease duration and reduced peak and cumulative disease score; Peak Disease Score ([4]; clinical score 0-5, mean and range, n=8): 1.8 (0-3); Cumulative Disease Score ([4]; summation of individual daily disease scores, mean and range, n=8): 4.8 (0-10); Weight Loss (%) ([4]; weight on 18 dpi as percent of maximum weight before disease onset, mean and range, n=8): 17 (10-23) %
N#Cc1ncccc1-c1cc(-c2ncccn2)cn(-c2ccccc2)c1=O [Example 264, 3-(2-Cyanopyridin-3-yl)-1-phenyl-5-(2-pyrimidyl)-1,2-dihydropyridin-2-one]	significant anticonvulsant action	superior effect to the vehicle-administered group		
O=c1c(-c2cccnc2F)cc(-c2ccccn2)cn1-c1cccnc1 [Example 139, 3-(2-Fluoro-3-pyridyl)-5-(2-pyridyl)-1-(3-pyridyl)-1,2-dihydropyridin-2-one]	significant anticonvulsant action	superior effect to the vehicle-administered group		
N#Cc1ccccc1-c1cc(-c2ccccn2)cn(-c2ccc(F)cc2)c1=O [Example 91, 3-(2-Cyanophenyl)-5-(2-pyridyl)-1-(4-fluorophenyl)-1,2-dihydropyridin-2-one]	significant anticonvulsant action		50 nM	
N#Cc1ccccc1-c1cc(-c2ccccn2)cn(-c2cccnc2)c1=O [Example 32, 3-(2-Cyanophenyl)-5-(2-pyridyl)-1-(3-pyridyl)-1,2-dihydropyridin-2-one]	significant anticonvulsant action	superior effect to the vehicle-administered group	100 nM	
O=c1c(-c2cccnc2F)cc(-c2ncccn2)cn1-c1ccccc1 [Example 262, 3-(2-Fluoropyridin-3-yl)-1-phenyl-5-(2-pyrimidinyl)-1,2-dihydropyridin-2-one]	significant anticonvulsant action	superior effect to the vehicle-administered group		IC50 [3, 5]: 300 nM
N#Cc1ccccc1-c1cc(-c2ccccc2)cn(-c2ccccc2)c1=O [Example 41, 3-(2-Cyanophenyl)-1,5-diphenyl-1,2-dihydropyridin-2-one]	significant anticonvulsant action		80 nM	
